According to patent publication US20230286968A1, “ARYLOXAZOLO SPIRAL RING DERIVATIVES FOR THE TREATMENT AND PROPHYLAXIS OF HEPATITIS B VIRUS INFECTION” (Hoffmann-La Roche Inc., priority 2020, published 2023):
Like-named read-outs stand apart in the source and are kept apart here.

What was measured:
[1] = Cytotoxicity in PHH natural infection assay (Cell Counting Kit-8); format: cell-based; details: HBV-infected primary human hepatocytes, CCK8
How it was run: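 HBV-infected primary human hepatocytes (200 GE/cell, 4% PEG8000, 24 h), sandwich-cultured 72 h, then given compound-containing medium twice at 72 h intervals. Cytotoxicity read by CCK-8 at end of treatment.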

[2] = test system: HBeAg; test: PHH natural infection assay, HBeAg (alphalisa); format: cell-based, HBV
How it was run: (§1)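 Cryopreserved PHH plated 24 h, infected with HBV at 200 GE/cell plus 4% PEG8000 for 24 h, then sandwich-cultured 72 h with 0.25 mg/mL matrix gel. Compounds at varied concentrations applied twice at 72-h intervals. Supernatant HBsAg and HBeAg measured by AlphaLISA with specific antibodies.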

[3] = test system: HBsAg; test: PHH natural infection assay, HBsAg (alphalisa); format: cell-based, HBV
How it was run: as §1

[4] = Hepatitis B virus, Hepatocyte, read-out: HBeAg IC50, HBV-infected primary human hepatocytes, supernatant, alphalisa
[5] = Hepatitis B virus, Hepatocyte, read-out: HBsAg IC50, HBV-infected primary human hepatocytes, supernatant, alphalisa
[6] = read-out: HBeAg IC50, HBV-infected primary human hepatocytes, supernatant, alphalisa
[7] = read-out: HBsAg IC50, HBV-infected primary human hepatocytes, supernatant, alphalisa

Row | Structure (SMILES) | CC50 at 144 h [1] | IC50 [2, 4] | IC50 [3, 5] | IC50 [2, 6] | IC50 [3, 7]
1 | O=C(NCC1CC(O)C1)NC1CC2(C1)CC(c1nc3cc(Cl)ccc3o1)C2 (stereo not drawn) [Example 64, 1-[6-(5-chloro-1,3-benzoxazol-2-yl)spiro[3.3]heptan-2-yl]-3-[(3-hydroxycyclobutyl)methyl]urea] | 84.8 µM | 4.47 µM | 5.62 µM | – | –
2 | CCCNC(=O)NC1CC2(C1)CC(c1nc3cc(Cl)ccc3o1)C2 (stereo not drawn) [Example 60, 1-[6-(5-chloro-1,3-benzoxazol-2-yl)spiro[3.3]heptan-2-yl]-3-propyl-urea] | > 100 µM | 5.1 µM | 7.19 µM | – | –
3 | O=C(NC1CC2(C1)CC(c1nc3cc(Cl)ccc3o1)C2)C1CNS(=O)(=O)C1 (stereo not drawn) [Example 43, N-[6-(5-chloro-1,3-benzoxazol-2-yl)spiro[3.3]heptan-2-yl]-1,1-dioxo-1,2-thiazolidine-4-carboxamide] | > 10 µM | 3.81 µM | 9.04 µM | – | –
4 | N=S(=O)(c1cc(C(=O)NC2CC3(C2)CC(c2nc4cc(Cl)ccc4o2)C3)ccn1)C1CC1 (stereo not drawn) [Example 86, N-[6-(5-chloro-1,3-benzoxazol-2-yl)spiro[3.3]heptan-2-yl]-2-(cyclopropylsulfonimidoyl)pyridine-4-carboxamide] | > 100 µM | 0.42 µM | 0.64 µM | – | –
5 | NS(=O)(=O)CCCC(=O)NC1CC2(C1)CC(c1nc3cc(Cl)ccc3o1)C2 (stereo not drawn) [Example 39, N-[6-(5-chloro-1,3-benzoxazol-2-yl)spiro[3.3]heptan-2-yl]-4-sulfamoyl-butanamide] | > 10 µM | 4.8 µM | 5.98 µM | – | –
6 | O=C(CC1CCCS(=O)(=O)C1)NC1CC2(C1)CC(c1nc3cc(Cl)ccc3o1)C2 (stereo not drawn) [Example 55, N-[6-(5-chloro-1,3-benzoxazol-2-yl)spiro[3.3]heptan-2-yl]-2-(1,1-dioxothian-3-yl)acetamide] | 78.9 µM | 2.6 µM | 3.39 µM | – | –
7 | Cc1csc(-c2cc(C(=O)NC3CC4(C3)CC(c3nc5cc(Cl)ccc5o3)C4)ccn2)n1 (stereo not drawn) [Example 14, N-[6-(5-chloro-1,3-benzoxazol-2-yl)spiro[3.3]heptan-2-yl]-2-(4-methylthiazol-2-yl)pyridine-4-carboxamide] | > 10 µM | 4.08 µM | 6.36 µM | – | –
8 | O=C(NC1CC2(C1)CC(c1nc3cc(Cl)ccc3o1)C2)c1ccnc(NC2CC2)c1 (stereo not drawn) [Example 10, N-[6-(5-chloro-1,3-benzoxazol-2-yl)spiro[3.3]heptan-2-yl]-2-(cyclopropylamino)pyridine-4-carboxamide] | > 10 µM | 3.92 µM | 3.77 µM | – | –
9 | O=C(NC1CC2(C1)CC(c1nc3cc(Cl)ccc3o1)C2)C1CS(=O)(=O)C1 (stereo not drawn) [Example 49, N-[6-(5-chloro-1,3-benzoxazol-2-yl)spiro[3.3]heptan-2-yl]-1,1-dioxo-thietane-3-carboxamide] | 96.1 µM | 2.61 µM | 3.27 µM | – | –
10 | CCN(CC)c1cc(C(=O)NC2CC3(C2)CC(c2nc4cc(Cl)ccc4o2)C3)ccn1 (stereo not drawn) [Example 6, N-[6-(5-chloro-1,3-benzoxazol-2-yl)spiro[3.3]heptan-2-yl]-2-(diethylamino)pyridine-4-carboxamide] | > 10 µM | 4.87 µM | 6.56 µM | – | –
11 | O=C(NC1CC2(C1)CC(c1nc3cc(Cl)ccc3o1)C2)C1CCN(C(=O)C2CC2)C1 (stereo not drawn) [Example 74, N-[6-(5-chloro-1,3-benzoxazol-2-yl)spiro[3.3]heptan-2-yl]-1-(cyclopropanecarbonyl)pyrrolidine-3-carboxamide] | > 10 µM | 2.17 µM | 3.2 µM | – | –
12 | O=C(NC1CC2(C1)CC(c1nc3cc(Cl)ccc3o1)C2)c1ccnc(S(=O)(=O)C2CC2)c1 (stereo not drawn) [Example 83, N-[6-(5-chloro-1,3-benzoxazol-2-yl)spiro[3.3]heptan-2-yl]-2-cyclopropylsulfonyl-pyridine-4-carboxamide] | 90.5 µM | 0.05 µM | 0.14 µM | – | –
13 | CNS(=O)(=O)Nc1cc(C(=O)NC2CC3(C2)CC(c2nc4cc(Cl)ccc4o2)C3)ccn1 (stereo not drawn) [Example 22, N-[6-(5-chloro-1,3-benzoxazol-2-yl)spiro[3.3]heptan-2-yl]-2-(methylsulfamoylamino)pyridine-4-carboxamide] | > 10 µM | 4.38 µM | 4.94 µM | – | –
14 | O=C(NC1CC2(C1)CC(c1nc3cc(Cl)ccc3o1)C2)C1CC(=O)N(c2ccccc2)C1 (stereo not drawn) [Example 32, N-[6-(5-chloro-1,3-benzoxazol-2-yl)spiro[3.3]heptan-2-yl]-5-oxo-1-phenyl-pyrrolidine-3-carboxamide] | > 100 µM | 5.44 µM | 8.27 µM | – | –
15 | O=C(NC1CCOC1)NC1CC2(C1)CC(c1nc3cc(Cl)ccc3o1)C2 (stereo not drawn) [Example 65, 1-[6-(5-chloro-1,3-benzoxazol-2-yl)spiro[3.3]heptan-2-yl]-3-tetrahydrofuran-3-yl-urea] | > 100 µM | 3.4 µM | 3.94 µM | – | –
16 | O=C(NC1CC2(C1)CC(c1nc3cc(Cl)ccc3o1)C2)C1CCN(S(=O)(=O)C2CC2)C1 (stereo not drawn) [Example 72, N-[6-(5-chloro-1,3-benzoxazol-2-yl)spiro[3.3]heptan-2-yl]-1-cyclopropylsulfonyl-pyrrolidine-3-carboxamide] | > 10 µM | 4.43 µM | 9.56 µM | – | –
17 | [H][C@]1(NC(=O)c2ccnc(S(=O)(=O)C3CC3)c2)C[C@@]2(C1)C[C@]([H])(c1nc3cc(Cl)ccc3o1)C2 (single isomer, unassigned) [Example 84b, (Sa)—N-[6-(5-chloro-1,3-benzoxazol-2-yl)spiro[3.3]heptan-2-yl]-2-cyclopropylsulfonyl-pyridine-4-carboxamide] | > 10 µM | – | – | 1.61 µM | 1.9 µM
18 | O=C(NC1CC2(C1)CC(c1nc3cc(Cl)ccc3o1)C2)C1CC(C(F)(F)F)C1 (stereo not drawn) [Example 29, N-[6-(5-chloro-1,3-benzoxazol-2-yl)spiro[3.3]heptan-2-yl]-3-(trifluoromethyl)cyclobutanecarboxamide] | > 100 µM | 3.82 µM | 4.67 µM | – | –
19 | Cc1ccc(S(=O)(=O)N2CCC(CC(=O)NC3CC4(C3)CC(c3nc5cc(Cl)ccc5o3)C4)C2)cc1 (stereo not drawn) [Example 76, N-[6-(5-chloro-1,3-benzoxazol-2-yl)spiro[3.3]heptan-2-yl]-2-[1-(p-tolylsulfonyl)pyrrolidin-3-yl]acetamide] | > 10 µM | 4 µM | 2.89 µM | – | –
20 | Cc1ccc(S(=O)(=O)N2CCC(CC(=O)NC3CC4(C3)CC(c3nc5cc(Cl)ccc5o3)C4)CC2)cc1 (stereo not drawn) [Example 80, N-[6-(5-chloro-1,3-benzoxazol-2-yl)spiro[3.3]heptan-2-yl]-2-[1-(p-tolylsulfonyl)-4-piperidyl]acetamide] | > 10 µM | 3.93 µM | 3.64 µM | – | –
21 | CC(C)(C)C(=O)NC1CC2(C1)CC(c1nc3cc(Cl)ccc3o1)C2 (stereo not drawn) [Example 27, N-[6-(5-chloro-1,3-benzoxazol-2-yl)spiro[3.3]heptan-2-yl]-2,2-dimethyl-propanamide] | > 100 µM | 9.75 µM | 9.77 µM | – | –
22 | Cc1c(Cl)cccc1N1CC(C(=O)NC2CC3(C2)CC(c2nc4cc(Cl)ccc4o2)C3)CC1=O (stereo not drawn) [Example 33, N-[6-(5-chloro-1,3-benzoxazol-2-yl)spiro[3.3]heptan-2-yl]-1-(3-chloro-2-methyl-phenyl)-5-oxo-pyrrolidine-3-carboxamide] | 42.8 µM | 3.07 µM | 3.24 µM | – | –
23 | CS(=O)(=O)N1CCC(CC(=O)NC2CC3(C2)CC(c2nc4cc(Cl)ccc4o2)C3)CC1 (stereo not drawn) [Example 79, N-[6-(5-chloro-1,3-benzoxazol-2-yl)spiro[3.3]heptan-2-yl]-2-(1-methylsulfonyl-4-piperidyl)acetamide] | > 10 µM | 3.6 µM | 6.72 µM | – | –
24 | CNC(=O)c1cc(C(=O)NC2CC3(C2)CC(c2nc4cc(Cl)ccc4o2)C3)ccn1 (stereo not drawn) [Example 102, N4-[6-(5-chloro-1,3-benzoxazol-2-yl)spiro[3.3]heptan-2-yl]-N2-methyl-pyridine-2,4-dicarboxamide] | > 10 µM | 2.28 µM | 2.69 µM | – | –
25 | CS(=O)(=O)c1cc(C(=O)NC2CC3(C2)CC(c2nc4cc(Cl)ccc4o2)C3)ccn1 (stereo not drawn) [Example 23, N-[6-(5-chloro-1,3-benzoxazol-2-yl)spiro[3.3]heptan-2-yl]-2-methylsulfonyl-pyridine-4-carboxamide] | 94.1 µM | 0.49 µM | 0.57 µM | – | –
26 | O=C(NC1CC2(C1)CC(c1nc3cc(Cl)ccc3o1)C2)N1CCC2(COC2)C1 (stereo not drawn) [Example 67, N-[6-(5-chloro-1,3-benzoxazol-2-yl)spiro[3.3]heptan-2-yl]-2-oxa-7-azaspiro[3.4]octane-7-carboxamide] | > 100 µM | 3.76 µM | 3.95 µM | – | –
27 | [H][C@]1(NC(=O)c2ccnc(S(C)(=O)=O)c2)C[C@@]2(C1)C[C@]([H])(c1nc3cc(Cl)ccc3o1)C2 (single isomer, unassigned) [Example 87-b, (Sa)—N-[6-(5-chloro-1,3-benzoxazol-2-yl)spiro[3.3]heptan-2-yl]-2-methylsulfonyl-pyridine-4-carboxamide] | > 10 µM | – | – | 3.29 µM | 3.68 µM
28 | CC(C)(C)N1CC(C(=O)NC2CC3(C2)CC(c2nc4cc(Cl)ccc4o2)C3)CC1=O (stereo not drawn) [Example 31, 1-tert-butyl-N-[6-(5-chloro-1,3-benzoxazol-2-yl)spiro[3.3]heptan-2-yl]-5-oxo-pyrrolidine-3-carboxamide] | > 100 µM | 5.24 µM | 7.87 µM | – | –
